Source: ChEMBL document CHEMBL1201862, “PubChem BioAssay data set” (2004)
Calls of active or inactive are those of the source.

Legend:
NADPH oxidase 1 = NADPH oxidase 1 (Homo sapiens, UniProt Q9Y5S8); type: functional, cell-based;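 further: Cell-based assay with luminescence read-out, IC50 derived from inhibitor dose-response curves; intracellular ROS from endogenous NOX1 in intact HT29 colon cancer cells; potency of inhibitors that lower the ROS luminescence signal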
[1] = biological target: T1, Replicative DNA helicase DnaB (Mycobacterium tuberculosis, UniProt P9WMR3); experiment: DnaB intein splicing inhibitors, dose response, biochemical, cell-free fluorescence (AID 449749); type: functional
T1 sequence (P9WMR3 whole entry): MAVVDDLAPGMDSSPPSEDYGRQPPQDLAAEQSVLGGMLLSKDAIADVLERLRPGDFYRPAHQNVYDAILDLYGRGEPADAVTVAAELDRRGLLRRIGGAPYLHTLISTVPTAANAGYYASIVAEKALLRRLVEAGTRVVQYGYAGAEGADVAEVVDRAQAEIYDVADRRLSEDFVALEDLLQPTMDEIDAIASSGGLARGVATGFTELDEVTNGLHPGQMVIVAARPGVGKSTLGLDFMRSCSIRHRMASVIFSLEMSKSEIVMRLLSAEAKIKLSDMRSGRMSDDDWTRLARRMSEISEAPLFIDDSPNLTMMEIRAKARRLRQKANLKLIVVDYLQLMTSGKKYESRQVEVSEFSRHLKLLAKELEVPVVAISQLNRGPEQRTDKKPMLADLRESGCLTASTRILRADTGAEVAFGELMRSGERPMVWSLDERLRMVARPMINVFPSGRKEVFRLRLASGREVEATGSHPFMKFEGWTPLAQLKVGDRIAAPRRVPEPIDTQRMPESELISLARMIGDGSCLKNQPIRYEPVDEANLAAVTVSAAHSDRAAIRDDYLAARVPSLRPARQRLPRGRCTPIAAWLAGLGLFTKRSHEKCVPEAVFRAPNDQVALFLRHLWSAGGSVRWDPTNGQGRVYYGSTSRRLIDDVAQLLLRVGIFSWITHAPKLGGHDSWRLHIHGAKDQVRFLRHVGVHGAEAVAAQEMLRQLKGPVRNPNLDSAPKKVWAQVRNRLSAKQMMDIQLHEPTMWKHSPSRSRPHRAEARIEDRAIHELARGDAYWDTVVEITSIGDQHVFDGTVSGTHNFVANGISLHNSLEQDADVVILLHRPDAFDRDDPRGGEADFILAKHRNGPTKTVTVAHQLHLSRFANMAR

Protein RecA = biological target: T2, Protein RecA (Mycobacterium tuberculosis, UniProt P9WHJ3); experiment: Fluorescence Cell-Free Homogeneous Dose Retest to Identify Inhibitors of RecA-Intein Splicing Activity. [Related pubchem assays (depositor defined):AID2097, AID2223, AID489010, AID492950]; type: functional
T2 sequence (P9WHJ3 whole entry): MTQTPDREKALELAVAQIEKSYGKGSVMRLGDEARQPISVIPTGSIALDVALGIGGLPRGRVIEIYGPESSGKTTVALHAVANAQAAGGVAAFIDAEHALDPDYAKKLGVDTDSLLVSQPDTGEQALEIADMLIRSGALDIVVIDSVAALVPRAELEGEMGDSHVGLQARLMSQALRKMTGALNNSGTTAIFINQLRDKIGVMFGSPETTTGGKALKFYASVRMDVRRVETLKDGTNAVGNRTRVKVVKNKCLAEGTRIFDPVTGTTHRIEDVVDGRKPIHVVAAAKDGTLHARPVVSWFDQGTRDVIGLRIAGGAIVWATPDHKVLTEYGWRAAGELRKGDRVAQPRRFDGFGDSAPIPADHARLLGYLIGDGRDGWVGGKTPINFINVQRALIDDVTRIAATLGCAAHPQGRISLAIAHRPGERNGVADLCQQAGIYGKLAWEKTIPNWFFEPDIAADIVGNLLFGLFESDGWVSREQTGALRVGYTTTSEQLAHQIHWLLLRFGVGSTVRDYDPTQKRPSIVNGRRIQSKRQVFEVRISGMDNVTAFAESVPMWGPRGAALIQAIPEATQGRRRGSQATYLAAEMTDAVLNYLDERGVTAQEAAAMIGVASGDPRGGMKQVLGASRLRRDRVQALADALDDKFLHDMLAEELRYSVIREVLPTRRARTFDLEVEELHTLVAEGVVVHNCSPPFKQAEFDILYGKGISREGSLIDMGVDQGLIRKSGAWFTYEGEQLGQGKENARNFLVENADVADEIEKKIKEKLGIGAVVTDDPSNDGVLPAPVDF

Estrogen receptor beta [2] = biological target: T3, Estrogen receptor beta (Homo sapiens, UniProt Q92731); experiment: blockers of SRC-3 recruitment to ERβ – biochemical, ELISA, streptavidin-HRP readout, orthogonal assay, confirmation (AID 1060)
Estrogen receptor beta [3] = biological target: T3, Estrogen receptor beta
[4] = biological target: T4, Mannose-6-phosphate isomerase (Homo sapiens, UniProt P34949); experiment: phosphomannose isomerase inhibition – biochemical, fluorescence intensity, confirmation (AID 1535)
T4 sequence (P34949 whole entry): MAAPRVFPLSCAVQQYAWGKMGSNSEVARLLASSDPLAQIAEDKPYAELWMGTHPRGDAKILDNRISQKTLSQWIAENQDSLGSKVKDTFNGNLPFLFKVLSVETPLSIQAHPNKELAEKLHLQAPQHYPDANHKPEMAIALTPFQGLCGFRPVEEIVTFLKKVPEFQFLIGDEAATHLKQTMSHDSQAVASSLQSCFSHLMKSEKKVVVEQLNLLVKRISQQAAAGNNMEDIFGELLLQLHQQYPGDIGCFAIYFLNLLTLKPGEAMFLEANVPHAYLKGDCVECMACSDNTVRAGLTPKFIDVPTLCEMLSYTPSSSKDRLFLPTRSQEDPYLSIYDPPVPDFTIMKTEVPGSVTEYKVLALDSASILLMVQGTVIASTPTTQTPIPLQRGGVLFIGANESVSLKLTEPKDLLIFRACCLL

[5] = biological target: T4, Mannose-6-phosphate isomerase; experiment: MPI inhibition at elevated mannose 6-phosphate – biochemical, fluorescence intensity, high mannose 6-phosphate, primary screen (AID 1220)
Aspartyl aminopeptidase = biological target: T5, Aspartyl aminopeptidase (Plasmodium falciparum 3D7, UniProt Q8I2J3)
T5 sequence (Q8I2J3 whole entry): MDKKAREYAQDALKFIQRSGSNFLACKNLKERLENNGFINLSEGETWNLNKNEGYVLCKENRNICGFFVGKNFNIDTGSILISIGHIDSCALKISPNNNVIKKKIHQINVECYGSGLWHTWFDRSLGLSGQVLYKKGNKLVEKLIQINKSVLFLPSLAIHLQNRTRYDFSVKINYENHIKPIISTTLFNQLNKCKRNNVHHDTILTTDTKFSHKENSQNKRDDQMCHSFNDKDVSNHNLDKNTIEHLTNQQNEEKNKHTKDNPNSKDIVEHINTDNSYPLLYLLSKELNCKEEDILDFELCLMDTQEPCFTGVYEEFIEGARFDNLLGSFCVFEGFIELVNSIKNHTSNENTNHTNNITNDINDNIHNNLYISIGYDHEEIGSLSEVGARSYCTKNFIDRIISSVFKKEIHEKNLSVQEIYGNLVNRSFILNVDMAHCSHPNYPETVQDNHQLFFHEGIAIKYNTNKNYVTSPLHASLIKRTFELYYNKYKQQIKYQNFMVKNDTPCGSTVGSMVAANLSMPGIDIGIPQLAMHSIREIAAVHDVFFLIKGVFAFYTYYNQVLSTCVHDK

[6] = NIH3T3 cell viability loss – ATP luminescence, mouse fibroblasts, counter-screen, dose response (AID 2010); type: functional, cell-based;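 further: cells exposed to compound for about 90 hours before reading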
[7] = biological target: Phosphoethanolamine/phosphocholine phosphatase (Homo sapiens, UniProt Q8TCT1); experiment: SAR assay for compounds that inhibit PHOSPHO1. [Related pubchem assays (depositor defined):AID1545, AID1565, AID1574]
Phosphomannomutase 2 = biological target: T6, Phosphomannomutase 2 (Homo sapiens, UniProt O15305); experiment: Counter screen SAR assay for PMM2 inhibitors via a fluorescence intensity assay. [Related pubchem assays (depositor defined):AID1545, AID1574]
T6 sequence (O15305 whole entry): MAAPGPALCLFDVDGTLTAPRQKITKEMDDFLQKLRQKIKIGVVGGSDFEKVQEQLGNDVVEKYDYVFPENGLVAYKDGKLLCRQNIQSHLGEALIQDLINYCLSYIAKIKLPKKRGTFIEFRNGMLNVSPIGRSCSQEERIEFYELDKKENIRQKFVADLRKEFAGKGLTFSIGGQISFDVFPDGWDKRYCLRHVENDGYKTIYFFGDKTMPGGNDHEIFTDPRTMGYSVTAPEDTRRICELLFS

Insulin-degrading enzyme = biological target: T7, Insulin-degrading enzyme (Homo sapiens, UniProt P14735); experiment: Dose Response: Fluorescence polarization-based cell-based high throughput dose response assay for inhibitors of insulin-degrading enzyme (IDE). [Related pubchem assays: 434962 (Primary screen (IDE inhibitors in singlicate)), 449730 (Counterscreen (Cytotoxicity in triplicate)), 435028 (Confirmation (IDE inhibitors in triplicate)), 434984 (Summary …; type: functional
T7 sequence (P14735 whole entry): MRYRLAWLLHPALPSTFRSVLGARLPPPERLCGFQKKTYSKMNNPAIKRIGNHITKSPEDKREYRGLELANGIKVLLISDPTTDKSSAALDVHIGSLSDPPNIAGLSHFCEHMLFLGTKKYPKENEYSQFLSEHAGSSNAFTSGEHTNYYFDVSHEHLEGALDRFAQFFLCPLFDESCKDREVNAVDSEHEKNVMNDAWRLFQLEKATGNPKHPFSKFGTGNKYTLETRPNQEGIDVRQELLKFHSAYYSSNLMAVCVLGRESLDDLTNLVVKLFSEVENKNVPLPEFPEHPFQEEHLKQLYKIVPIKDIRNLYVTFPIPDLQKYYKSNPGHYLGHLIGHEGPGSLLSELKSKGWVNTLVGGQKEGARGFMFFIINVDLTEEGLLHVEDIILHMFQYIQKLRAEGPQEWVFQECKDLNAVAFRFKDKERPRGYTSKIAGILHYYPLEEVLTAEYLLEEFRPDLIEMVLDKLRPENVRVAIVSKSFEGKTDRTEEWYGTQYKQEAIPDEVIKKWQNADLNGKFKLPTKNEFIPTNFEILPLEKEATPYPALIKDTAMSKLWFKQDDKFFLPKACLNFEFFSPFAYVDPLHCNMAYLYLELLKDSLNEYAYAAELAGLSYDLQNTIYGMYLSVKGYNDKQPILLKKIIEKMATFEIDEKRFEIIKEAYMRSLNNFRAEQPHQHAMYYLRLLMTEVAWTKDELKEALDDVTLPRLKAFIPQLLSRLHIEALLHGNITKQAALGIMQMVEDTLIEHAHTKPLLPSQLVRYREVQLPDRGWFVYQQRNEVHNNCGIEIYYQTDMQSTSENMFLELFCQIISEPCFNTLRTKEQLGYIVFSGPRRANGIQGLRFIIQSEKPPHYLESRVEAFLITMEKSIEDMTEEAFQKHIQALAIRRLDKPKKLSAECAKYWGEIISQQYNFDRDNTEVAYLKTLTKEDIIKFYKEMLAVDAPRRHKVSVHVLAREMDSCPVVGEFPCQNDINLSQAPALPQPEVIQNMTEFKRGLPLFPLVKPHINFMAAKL

[8] = Counterscreen for IDE inhibitors: Luminescence-based cell-based high throughput dose response assay to identify compounds that are cytotoxic to HEK cells. [Related pubchem assays: 434962 (Primary screen (IDE inhibitors in singlicate)), 449730 (Counterscreen (Cytotoxicity in triplicate)), 435028 (Confirmation (IDE inhibitors in triplicate)) …; type: functional; details: HEK293
Large T antigen = Large T antigen (Simian virus 40, UniProt P03070); type: functional, Betapolyomavirus macacae;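 further: Confirmatory-stage PubChem screen for compounds that inhibit SV40 T antigen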
Procathepsin L = Procathepsin L (Homo sapiens, UniProt P07711)
[9] = biological target: T8, Alkaline phosphatase, tissue-nonspecific isozyme (Homo sapiens, UniProt P05186); experiment: potency against alkaline phosphatase TNAP – biochemical, luminescent, dose response, SAR follow-up (AID 1056)
T8 sequence (P05186 whole entry): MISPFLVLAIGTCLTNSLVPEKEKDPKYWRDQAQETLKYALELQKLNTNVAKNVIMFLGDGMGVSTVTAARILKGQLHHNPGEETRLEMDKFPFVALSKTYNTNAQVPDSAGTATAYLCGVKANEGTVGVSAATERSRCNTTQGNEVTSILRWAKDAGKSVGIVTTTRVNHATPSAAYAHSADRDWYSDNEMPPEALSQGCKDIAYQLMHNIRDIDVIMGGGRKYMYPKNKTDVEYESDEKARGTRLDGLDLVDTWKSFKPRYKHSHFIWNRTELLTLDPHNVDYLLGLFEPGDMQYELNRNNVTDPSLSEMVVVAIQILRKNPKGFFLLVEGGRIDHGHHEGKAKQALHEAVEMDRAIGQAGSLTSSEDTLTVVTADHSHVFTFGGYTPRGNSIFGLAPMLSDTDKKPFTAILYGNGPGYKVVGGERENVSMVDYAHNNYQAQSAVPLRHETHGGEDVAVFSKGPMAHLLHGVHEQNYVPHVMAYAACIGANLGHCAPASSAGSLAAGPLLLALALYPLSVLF

[10] = Trypanosoma cruzi growth suppression in host cells – NIH3T3 host cells, beta-gal luminescence, confirmation (AID 2044); type: functional, cell-based;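 further: intracellular parasites grown in NIH/3T3 mouse fibroblasts as host cells; luminescent beta-galactosidase reporter signal from transgenic T. cruzi replicating inside host cells; inhibitors lower the luminescence signal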
[11] = biological target: T4, Mannose-6-phosphate isomerase; experiment: MPI enzyme activity inhibition – biochemical, fluorescence intensity, coupled assay, primary screen (AID 1209)
[12] = biological target: Eukaryotic translation initiation factor 4E (Mus musculus, UniProt P63073); experiment: blockers of eIF4G binding by eIF4E – biochemical, TR-FRET, dose response (AID 855); type: functional;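 further: potency for disrupting eIF4E binding to eIF4GI seen as loss of FRET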
Chain of Eukaryotic translation initiation factor 4E (P63073 whole entry): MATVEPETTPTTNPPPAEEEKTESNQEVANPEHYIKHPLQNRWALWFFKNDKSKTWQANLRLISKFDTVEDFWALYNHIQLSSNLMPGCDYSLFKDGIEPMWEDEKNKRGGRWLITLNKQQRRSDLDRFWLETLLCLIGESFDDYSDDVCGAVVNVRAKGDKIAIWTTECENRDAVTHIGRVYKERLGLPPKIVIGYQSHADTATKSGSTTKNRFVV

T3 sequence (Q92731 whole entry): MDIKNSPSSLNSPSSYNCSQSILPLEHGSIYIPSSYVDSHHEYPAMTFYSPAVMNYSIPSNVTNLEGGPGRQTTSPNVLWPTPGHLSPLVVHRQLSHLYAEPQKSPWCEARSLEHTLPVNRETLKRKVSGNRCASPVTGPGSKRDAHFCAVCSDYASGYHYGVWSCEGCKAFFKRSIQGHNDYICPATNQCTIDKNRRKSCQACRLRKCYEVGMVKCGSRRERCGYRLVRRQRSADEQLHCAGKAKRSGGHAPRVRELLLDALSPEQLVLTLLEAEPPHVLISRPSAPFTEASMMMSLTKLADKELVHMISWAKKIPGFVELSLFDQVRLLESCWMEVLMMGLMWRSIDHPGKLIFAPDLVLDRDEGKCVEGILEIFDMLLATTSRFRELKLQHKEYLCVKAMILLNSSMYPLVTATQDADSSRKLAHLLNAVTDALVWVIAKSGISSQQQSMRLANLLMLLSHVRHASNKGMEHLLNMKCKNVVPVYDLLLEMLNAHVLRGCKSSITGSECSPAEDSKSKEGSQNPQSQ
Chain of NADPH oxidase 1 (Q9Y5S8 whole entry): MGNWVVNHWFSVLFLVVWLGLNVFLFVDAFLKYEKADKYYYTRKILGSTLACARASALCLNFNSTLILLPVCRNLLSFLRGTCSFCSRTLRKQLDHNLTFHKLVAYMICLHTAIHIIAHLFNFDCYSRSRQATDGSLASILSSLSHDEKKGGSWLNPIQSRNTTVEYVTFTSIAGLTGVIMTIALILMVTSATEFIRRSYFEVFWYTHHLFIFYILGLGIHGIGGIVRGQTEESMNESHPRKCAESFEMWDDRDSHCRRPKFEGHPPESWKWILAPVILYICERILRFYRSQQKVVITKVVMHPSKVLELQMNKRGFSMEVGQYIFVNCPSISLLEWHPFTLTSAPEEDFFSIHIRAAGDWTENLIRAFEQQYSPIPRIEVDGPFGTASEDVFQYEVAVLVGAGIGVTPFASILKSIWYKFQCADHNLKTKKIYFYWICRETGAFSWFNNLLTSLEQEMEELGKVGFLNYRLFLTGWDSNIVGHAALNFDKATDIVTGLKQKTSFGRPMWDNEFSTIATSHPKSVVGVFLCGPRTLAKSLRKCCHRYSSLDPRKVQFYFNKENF
Chain of Large T antigen (P03070 whole entry): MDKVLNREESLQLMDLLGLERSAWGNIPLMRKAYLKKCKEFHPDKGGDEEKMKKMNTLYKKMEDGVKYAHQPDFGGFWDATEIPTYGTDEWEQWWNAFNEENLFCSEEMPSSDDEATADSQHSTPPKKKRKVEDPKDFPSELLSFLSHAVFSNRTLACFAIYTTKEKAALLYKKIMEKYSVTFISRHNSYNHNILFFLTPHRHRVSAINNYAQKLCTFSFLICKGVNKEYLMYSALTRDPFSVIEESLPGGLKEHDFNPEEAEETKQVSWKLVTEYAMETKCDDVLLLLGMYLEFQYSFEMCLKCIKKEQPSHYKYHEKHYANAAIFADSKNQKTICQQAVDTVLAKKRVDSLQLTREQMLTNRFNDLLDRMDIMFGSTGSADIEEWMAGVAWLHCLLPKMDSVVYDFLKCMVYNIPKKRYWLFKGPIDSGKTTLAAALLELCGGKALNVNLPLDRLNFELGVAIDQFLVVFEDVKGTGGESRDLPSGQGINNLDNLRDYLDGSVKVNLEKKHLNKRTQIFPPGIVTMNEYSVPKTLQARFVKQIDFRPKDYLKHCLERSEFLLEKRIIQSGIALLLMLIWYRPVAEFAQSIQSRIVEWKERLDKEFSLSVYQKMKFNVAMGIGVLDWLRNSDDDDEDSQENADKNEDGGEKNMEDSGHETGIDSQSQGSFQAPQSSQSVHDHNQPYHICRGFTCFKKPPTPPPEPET
Chain of Phosphoethanolamine/phosphocholine phosphatase (Q8TCT1 whole entry): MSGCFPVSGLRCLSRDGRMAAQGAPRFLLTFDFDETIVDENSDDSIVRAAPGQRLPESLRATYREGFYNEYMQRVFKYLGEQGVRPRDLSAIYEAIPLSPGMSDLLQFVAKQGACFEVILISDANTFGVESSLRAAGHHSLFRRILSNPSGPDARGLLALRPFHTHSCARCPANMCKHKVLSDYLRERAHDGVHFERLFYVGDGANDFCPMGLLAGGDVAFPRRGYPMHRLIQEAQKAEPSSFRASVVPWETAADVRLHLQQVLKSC
Chain of Procathepsin L (P07711 whole entry): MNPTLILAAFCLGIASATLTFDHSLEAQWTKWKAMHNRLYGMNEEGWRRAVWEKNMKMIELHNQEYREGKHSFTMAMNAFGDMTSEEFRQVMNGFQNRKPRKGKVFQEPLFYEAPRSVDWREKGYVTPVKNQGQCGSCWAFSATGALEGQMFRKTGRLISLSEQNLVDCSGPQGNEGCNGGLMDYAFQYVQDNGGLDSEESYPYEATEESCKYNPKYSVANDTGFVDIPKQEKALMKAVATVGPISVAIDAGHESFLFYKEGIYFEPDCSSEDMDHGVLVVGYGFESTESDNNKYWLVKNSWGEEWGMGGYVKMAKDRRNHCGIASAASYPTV

c1ccc(-c2nc(-c3ccccc3)c(-c3ccccc3)o2)cc1
IC50 (NADPH oxidase 1): > 17 µM (not active)

CC1(N2CCOCC2)CC2(O)C(=[N+]1[O-])CCc1nonc12 (centres undefined)
AC50 [1]: > 380 µM (inactive) | EC50 (Protein RecA): 11.9 µM (active) | IC50 (Estrogen receptor beta [2]): 0.256 µM (not active) | IC50 (Estrogen receptor beta [3]): 12 µM (active)

Cc1ccc(-n2sc3ccccc3c2=O)cc1S(=O)(=O)N1CCCCC1
IC50 [4]: 3.06 µM (active) | IC50 [5]: > 50 µM (not active) | IC50 (Aspartyl aminopeptidase): 4.28 µM (active) | EC50 [6]: > 60 µM (not active) | IC50 [7]: 1.84 µM (inactive) | IC50 (Phosphomannomutase 2): 14.6 µM (active) | IC50 (Insulin-degrading enzyme): 4.05 µM (active) | IC50 [8]: 10.5 µM (not active) | IC50 (Large T antigen): 26.1 µM (active) | IC50 (Procathepsin L): > 59.6 µM (not active) | IC50 [9]: > 100 µM (inactive) | EC50 [10]: 0.89 µM (active) | IC50 [11]: > 50 µM (not active) | IC50 [12]: 1.93 µM (active)
